Assay results as given in the supplement of paper PMC11616607.

Columns and labels:
Test in all cases: drug sensitivity score (DSS) from 5-point dose-response viability curve (DSS (area-under-curve based score)); higher = more sensitive (stronger growth inhibition or killing); extreme values may be limits of the assay
Details in all cases: exposure time: 72 h; concentration range: 5 concentrations over 10,000-fold range
OVCAR5 = system: OVCAR5
Method in brief: (§1)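 Viability of ovarian cancer and normal ovarian cell lines was read by CellTiter-Glo luminescence after 3 days at 37°C and 5% CO2 in 384-well plates holding 1,500 cells per well. Drugs had been dispensed in DMSO or water with an Echo 550 at five concentrations over a 10,000-fold range. Using Breeze software, a drug sensitivity score was assigned per cell line and drug, higher scores meaning more sensitive, and zero means no response.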

OV90 = system: OV90
Method in brief: as §1

OVCAR8 = system: OVCAR8
Method in brief: as §1

HOSE2C = system: HOSE2C
Method in brief: as §1

HOSE1C = system: HOSE1C
Method in brief: as §1

CAOV3 = system: CAOV3
Method in brief: as §1

OVCAR4 = system: OVCAR4
Method in brief: as §1

COV362 = system: COV362
Method in brief: as §1

Kuramochi = system: Kuramochi
Method in brief: as §1

Ovsaho = system: Ovsaho
Method in brief: as §1

COV318 = system: COV318
Method in brief: as §1

JHOS2 = system: JHOS2
Method in brief: as §1

Structure (SMILES) | drug sensitivity score (OVCAR5) | drug sensitivity score (OV90) | drug sensitivity score (OVCAR8) | drug sensitivity score (HOSE2C) | drug sensitivity score (HOSE1C) | drug sensitivity score (CAOV3) | drug sensitivity score (OVCAR4) | drug sensitivity score (COV362) | drug sensitivity score (Kuramochi) | drug sensitivity score (Ovsaho) | drug sensitivity score (COV318) | drug sensitivity score (JHOS2)
Cc1ccc(Nc2nccc(N(C)c3ccc4c(C)n(C)nc4c3)n2)cc1S(N)(=O)=O [Pazopanib] | 0 | 0 | 0 | 0 | 0 | 0 | 0 | 0 | 0 | 0 | 0.1 | 0
Nc1nc2[nH]cc(CCc3ccc(C(=O)N[C@@H](CCC(=O)O)C(=O)O)cc3)c2c(=O)[nH]1 [Pemetrexed] | 7.6 | 3.7 | 18.2 | 20.4 | 22.9 | 14.1 | 4.2 | 12.7 | 5.8 | 6.1 | 0 | 0
OC[C@H]1O[C@@H](n2cnc3c2N=CNC[C@H]3O)C[C@@H]1O [Pentostatin] | 0 | 0 | 0 | 1.5 | 0 | 0 | 0 | 0 | 0 | 0 | 0 | 0
CCCCCCCCCCCCCCCCCCOP(=O)([O-])OC1CC[N+](C)(C)CC1 [Perifosine] | 0 | 0 | 0 | 0 | 0 | 0 | 0 | 0 | 0 | 0 | 0 | 0
NS(=O)(=O)OC[C@@H]1C[C@@H](n2ccc3c(N[C@H]4CCc5ccccc54)ncnc32)C[C@@H]1O [Pevonedistat] | 6.3 | 16.2 | 16.3 | 22.6 | 17.2 | 25.6 | 2.6 | 8.7 | 7.8 | 6.1 | 3.5 | 15
FC(F)(F)c1ccc(CNc2ccc(Cc3c[nH]c4ncc(Cl)cc34)cn2)cn1 [Pexidartinib] | 2.3 | 0.7 | 1.8 | 0 | 0 | 0.8 | 1.3 | 0 | 0.6 | 0.1 | 0.7 | 5
CS(=O)(=O)N1CCN(Cc2cc3nc(-c4cccc5[nH]ncc45)nc(N4CCOCC4)c3s2)CC1 [Pictilisib] | 12.1 | 6.2 | 8.3 | 8.2 | 6.8 | 9.8 | 5.3 | 5.9 | 10.6 | 9.5 | 5.3 | 3.8
CC[C@@H]1C(=O)OC[C@@H]1Cc1cncn1C [Pilocarpine] | 0 | 0 | 0 | 0 | 0 | 0 | 0 | 0 | 0 | 0 | 0 | 0.5
CC(C)N(C[C@H]1O[C@@H](n2cnc3c(N)ncnc32)[C@H](O)[C@@H]1O)[C@H]1C[C@@H](CCc2nc3cc(C(C)(C)C)ccc3[nH]2)C1 [Pinometostat] | 0 | 0 | 0 | 0 | 0 | 0 | 0 | 0 | 0 | 0 | 0 | 0
Cc1ccc(=O)n(-c2ccccc2)c1 [Pirfenidone] | 0 | 0 | 0 | 0 | 0 | 0 | 0 | 0 | 0 | 0 | 0 | 0
NCCNc1ccc(NCCN)c2c1C(=O)c1ccncc1C2=O [Pixantrone] | 0 | 0.1 | 0.4 | 0 | 0 | 0 | 0 | 0 | 0.1 | 0.3 | 0 | 0
c1cc(CN2CCCNCCNCCCNCC2)ccc1CN1CCCNCCNCCCNCC1 [Plerixafor] | 0 | 0 | 0 | 0 | 0 | 0 | 0 | 0 | 0 | 0 | 0 | 0
CO[C@H](C(=O)[C@@H](O)[C@@H](C)O)[C@@H]1Cc2cc3cc(O[C@H]4C[C@@H](O[C@@H]5C[C@@H](O)[C@H](O)[C@@H](C)O5)[C@H](O)[C@@H](C)O4)c(C)c(O)c3c(O)c2C(=O)[C@H]1O[C@H]1C[C@@H](O[C@@H]2C[C@@H](O)[C@@H](O[C@@H]3C[C@](C)(O)[C@H](O)[C@@H](C)O3)[C@@H](C)O2)[C@H](O)[C@@H](C)O1 [Plicamycin] | 16.5 | 19.1 | 19.4 | 0 | 0 | 8.8 | 5.7 | 2.9 | 0 | 0.1 | 0 | 0
Nc1cccc2c1C(=O)N(C1CCC(=O)NC1=O)C2=O (stereo not drawn) [Pomalidomide] | 0 | 0 | 0 | 0 | 0 | 0 | 0 | 0 | 0 | 0 | 0 | 0
